Columns and labels:
[1] = test system: HeLa cells; assay: FACS staining of camptothecin-treated apoptotic HeLa cells; assay type: cell-based
Method: HeLa cells (5×10^5 in 10 cm plates) maintained in DMEM with 10% FBS were contacted with 5 μM camptothecin to induce apoptosis. Cell staining by FITC-labeled Annexin V (Abcam, Cambridge, Mass.) or Cy5.5-labeled chicken LDH (1 μL) prepared as described in Example 1, was measured by fluorescence-activated cell sorting (FACS) analysis (with cells in annexin binding buffer (Abcam)) 12 h, 24 h, and 48 h later. Untreated HeLa cells served as negative controls.
Staining by Annexin V is known to require the presence of calcium. […] HeLa cells treated with camptothecin to induce apoptosis as in Example 9 were stained with FITC-labeled Annexin V (Abcam, Cambridge, Mass.) or Cy5.5-labeled chicken LDH in calcium-containing Annexin buffer or in calcium-free PBS. Stained cells were analyzed by FACS analysis as in Example 9.
HeLa cells (5×10^5 in 10 cm plates) maintained in DMEM with 10% FBS were contacted with 5 μM camptothecin to induce apoptosis. Cell staining was done in the media: (i) annexin buffer, (ii) DMEM supplemented with 1% FBS; (iii) DMEM supplemented with 2% FBS; (iii) DMEM supplemented with 5% FBS; (iv) DMEM supplemented with 10% FBS. For cell staining FITC-labeled Annexin V (Abcam, Cambridge, Mass.) or Cy5.5-labeled chicken LDH (1 μL) prepared as described in Example 1, was used to for FACS analysis (cells in annexin binding buffer (Abcam)) 48 h later. Untreated HeLa cells served as negative controls. […]

[2] = test system: adherent and suspension cancer cell lines (e.g., HeLa, RS(4;11), THP-1, MDA-MB231); assay: Concordance of Annexin V and cLDHB staining across cancer cell lines; assay type: cell-based; settings: apoptosis induced by camptothecin, doxorubicin, HDAC inhibitors
[3] = test system: apoptotic cells; assay: Homogeneous multiwell apoptosis assay in normal growth medium; assay type: cell-based; settings: e.g., RPMI with 10% FBS, flow cytometry or High-Content Microscopy
[4] = test system: apoptotic cells; assay: Staining requirements (temperature, calcium) of cLDHB and Annexin V; assay type: cell-based
Method: To determine if cLDHB is actively transported into cells, staining was performed at room temperature and at 4° C.
A major limitation of Annexin V staining is the requirement for supra-physiological concentrations of calcium (Tait, J. F., D. F. Gibson, and C. Smith, Anal Biochem, 2004. 329: 112-9). To determine whether cLDHB staining required calcium, Annexin V and cLDHB staining was performed in PBS (without calcium or magnesium) or in Annexin Binding Buffer (with 2.5 mM calcium).

[5] = test system: THP-1 cells; assay: Staining of THP-1 cells treated with HDAC inhibitor LAQ824; assay type: cell-based; settings: THP-1, LAQ824 50 nM, 18 hrs
Method: To correlate cLDHB staining with other measures of apoptosis, a fluorescent probe that binds to activated caspases (pan-caspase-FLICA, Immunochemistry Tech) was used. THP-1 cells were treated with the HDAC inhibitor LAQ824 (50 nM, 18 hrs) to induce apoptosis.
Similarly, we asked whether the […] proteins performed comparably to purified recombinant LDH.

[6] = test system: non-transformed rat cardiomyocytes; assay: Concordance of staining in doxorubicin-treated cardiomyocytes; assay type: cell-based; settings: apoptosis induced with doxorubicin
[7] = test system: Ku812-Luc+ (BCR-ABL+CML blast crisis) cells; assay: In vivo imaging of chemotherapy-induced apoptosis (AMN107); design: species or system mice; settings: 20 μg probe after 3 doses of AMN107
Method: Subcutaneous tumors were established using Ku812-Luc+ (BCR-ABL+CML blast crisis) cells in NCr nude mice. When tumors were ˜1 cm, mice underwent bioluminescence imaging (BLI) to determine baseline tumor burden, followed by treatment with either AMN107 (nilotinib) at 100 mg/kg intraperitoneally (IP), or with vehicle. After 3 doses, animals were injected with 20 μg of LDH-Alexa750. Fluorescence imaging (FL) was performed 24 and 48 hrs after probe injection (day 4 and 5 of treatment) and BLI was repeated on day 5 of treatment (FIG. 9A).

[8] = test system: hepatocyte apoptosis; assay: In vivo NIR imaging of fulminant hepatic failure (anti-Fas antibody); design: species or system mice; settings: liver region; 10 μg probe; 25 hrs after probe injection
Method: This model was used to compare LDH to Annexin V for near infrared (NIR) imaging of apoptosis. Alexa750-NHS was conjugated to Annexin V (Biovision) and chicken LDHB (XpressBio) at a labeling ratio of 2:1 per mole of protein based on prior optimization. A total of 10 male NCr nude mice were injected with 5 μg of anti-Fas antibody (Jo2, Pharmingen), and 10 animals were injected with 5 μg of an isotype-matched control antibody. Two hours later, mice were injected with 10 μg of either LDH-Alexa750 or Annexin V-Alexa750. Mice underwent NIR fluorescence imaging (IVIS Spectrum, Caliper) 25 hrs after probe injection (FIG. 8A). After spectral unmixing and background subtraction (Living Images software package), regions of interest were used to quantify fluorescence localized to the liver region (FIG. 8A), as indicated with arrowheads.

cLDHB: chicken LDHB used as fluorescently labeled probe; fluorochrome not stated at the place
change of staining with increasing amounts of FBS (FACS) ([1]; HeLa treated with camptothecin): no significant changes
stability of staining after washing ([1]; washed with 6 changes of PBS): entirely stable
concordance in staining with Annexin V [2]: concordance in staining
staining / quantification of apoptosis with probe added directly to normal growth medium [3]: apoptosis can be quantified
staining at room temperature versus 4° C. [4]: Identical results
staining in PBS (without calcium or magnesium) compared to Annexin Binding Buffer (2.5 mM calcium) [4]: identical under both conditions
staining of live cells negative for FLICA staining [5]: negative
concordance in staining with Annexin V [6]: Concordant staining

LDH-Alexa750: chicken LDHB (XpressBio) conjugated to Alexa750-NHS at a labeling ratio of 2:1
NIR fluorescence signal from the tumors in AMN107-treated animals compared to vehicle-treated controls [7]: > 4 fold
mean signal intensity (photons/sec/ROI) of anti-Fas antibody treated animals above IgG control antibody treated animals [8]: 4.2 fold

From patent US8999661B2, “Compositions for detecting cell death and methods of use thereof” (Dana-Farber Cancer Institute, Inc., priority 2008, dated 2015)
